Consider 39 compounds from patent US7851474B2, “Dipiperazinyl ketones and related analogues” (Neurogen Corporation, priority 2005, dated 2010).

In this test the target is T1, chimeric human H3 receptor (Homo sapiens, UniProt Q9Y5N1, E19D).
T1 construct: made in house; host or cells: Sf9 insect cells (baculovirus infection); P2 membrane preparation
T1 sequence (Q9Y5N1 with tags, fused parts or gaps E19D): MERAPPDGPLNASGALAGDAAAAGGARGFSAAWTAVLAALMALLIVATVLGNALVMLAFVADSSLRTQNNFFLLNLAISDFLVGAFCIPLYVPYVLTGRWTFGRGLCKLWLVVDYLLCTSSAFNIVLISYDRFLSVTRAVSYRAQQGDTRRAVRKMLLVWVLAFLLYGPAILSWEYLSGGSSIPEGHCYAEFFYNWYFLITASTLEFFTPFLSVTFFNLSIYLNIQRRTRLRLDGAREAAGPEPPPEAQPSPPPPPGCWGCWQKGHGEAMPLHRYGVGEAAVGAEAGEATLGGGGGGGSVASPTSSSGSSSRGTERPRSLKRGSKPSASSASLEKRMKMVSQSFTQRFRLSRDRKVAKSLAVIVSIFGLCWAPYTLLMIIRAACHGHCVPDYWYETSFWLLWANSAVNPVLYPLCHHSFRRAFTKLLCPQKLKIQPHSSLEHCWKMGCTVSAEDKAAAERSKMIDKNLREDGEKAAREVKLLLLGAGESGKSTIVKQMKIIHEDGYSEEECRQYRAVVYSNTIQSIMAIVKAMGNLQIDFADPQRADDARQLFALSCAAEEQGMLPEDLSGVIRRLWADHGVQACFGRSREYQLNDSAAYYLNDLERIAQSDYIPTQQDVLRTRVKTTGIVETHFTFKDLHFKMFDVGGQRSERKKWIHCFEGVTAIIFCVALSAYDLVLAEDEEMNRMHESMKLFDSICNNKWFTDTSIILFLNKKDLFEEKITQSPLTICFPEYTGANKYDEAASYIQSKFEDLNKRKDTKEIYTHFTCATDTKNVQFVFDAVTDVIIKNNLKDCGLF
As to the kind of experiment: Chimeric human H3 receptor screening GTP binding assay (inhibition of histamine-stimulated GTP-gamma35S binding, Example 8). To be noted: 1 h; Table II, "+" in the column headed Ki; assay of Example 8; read-out: percent inhibition of agonist-induced GTP-gammaS binding to H3. It counts as biochemical. The method, boiled down:
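Data are percent inhibition of the 1 μM histamine-stimulated GTP-gamma35S (125 pM) binding, after non-specific binding (10 uM GTP-gammaS) is subtracted. Test compound at 4 μM. Incubation was 60 min at room temperature with Sf9 membranes bearing receptor plus G-protein subunits, buffer pH 7.4 with 10 μM GDP, and filtration read-out.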
On the technique in general: Binding of GTPγS marks nucleotide exchange on a G protein.
`Cc1cccc(C(=O)N2CCN(CC(=O)N3CCN(C4CCC4)CC3)CC2)c1C` [Compound 671, 1-cyclobutyl-4-{[4-(2,3-dimethylbenzoyl)piperazin-1-yl]acetyl}piperazine]: the inhibition (as a rule, the change of the read-out against control, counted positive when it falls) at 4 µM is greater than 90%.

As to `O=C(CN1CCN(C(=O)c2ccc(Cl)cc2Cl)CC1)N1CCN(C2CCC2)CC1` [Compound 674, 1-cyclobutyl-4-{[4-(2,4-dichlorobenzoyl)piperazin-1-yl]acetyl}piperazine], the inhibition at 4 µM is greater than 90%.

Take `COc1ccc(C(=O)N2CCN(CC(=O)N3CCN(C4CCC4)CC3)CC2)c(OC)c1` [Compound 677, 1-cyclobutyl-4-{[4-(2,4-dimethoxybenzoyl)piperazin-1-yl]acetyl}piperazine]: the inhibition at 4 µM was greater than 90%.

For the compound `Cc1ccc(C(=O)N2CCN(CC(=O)N3CCN(C4CCC4)CC3)CC2)c(C)c1` [Compound 679, 1-cyclobutyl-4-{[4-(2,4-dimethylbenzoyl)piperazin-1-yl]acetyl}piperazine], the inhibition at 4 µM was greater than 90%.

Take `O=C(CN1CCN(C(=O)c2cc(Cl)ccc2Cl)CC1)N1CCN(C2CCC2)CC1` [Compound 681, 1-cyclobutyl-4-{[4-(2,5-dichlorobenzoyl)piperazin-1-yl]acetyl}piperazine]: the inhibition at 4 µM was greater than 90%.

For the compound `O=C(CN1CCN(C(=O)c2cc(F)ccc2F)CC1)N1CCN(C2CCC2)CC1` [Compound 684, 1-cyclobutyl-4-{[4-(2,5-difluorobenzoyl)piperazin-1-yl]acetyl}piperazine], the inhibition at 4 µM was greater than 90%.

`COc1ccc(OC)c(C(=O)N2CCN(CC(=O)N3CCN(C4CCC4)CC3)CC2)c1` [Compound 686, 1-cyclobutyl-4-{[4-(2,5-dimethoxybenzoyl)piperazin-1-yl]acetyl}piperazine]: the inhibition at 4 µM is greater than 90%.

Regarding `Cc1cc(C(=O)N2CCN(CC(=O)N3CCN(C4CCC4)CC3)CC2)c(C)o1` [Compound 688, 1-cyclobutyl-4-{[4-(2,5-dimethyl-3-furoyl)piperazin-1-yl]acetyl}piperazine], the inhibition at 4 µM is greater than 90%.

Turning to `Cc1ccc(C)c(C(=O)N2CCN(CC(=O)N3CCN(C4CCC4)CC3)CC2)c1` [Compound 689, 1-cyclobutyl-4-{[4-(2,5-dimethylbenzoyl)piperazin-1-yl]acetyl}piperazine], the inhibition at 4 µM was greater than 90%.

On to `O=C(CN1CCN(C(=O)c2c(Cl)cccc2Cl)CC1)N1CCN(C2CCC2)CC1` [Compound 691], for which the inhibition at 4 µM was greater than 90%.

For the compound `O=C(CN1CCN(C(=O)c2cc(Cl)nc(Cl)c2)CC1)N1CCN(C2CCC2)CC1` [Compound 692], the inhibition at 4 µM was greater than 90%.

Regarding `O=C(CN1CCN(C(=O)c2c(F)cccc2F)CC1)N1CCN(C2CCC2)CC1` [Compound 693, 1-cyclobutyl-4-{[4-(2,6-difluorobenzoyl)piperazin-1-yl]acetyl}piperazine], the inhibition at 4 µM is greater than 90%.

Take `COc1cccc(OC)c1C(=O)N1CCN(CC(=O)N2CCN(C3CCC3)CC2)CC1` [Compound 694, 1-cyclobutyl-4-{[4-(2,6-dimethoxybenzoyl)piperazin-1-yl]acetyl}piperazine]: the inhibition at 4 µM was greater than 90%.

On to `Cc1cccc(C)c1C(=O)N1CCN(CC(=O)N2CCN(C3CCC3)CC2)CC1` [Compound 696, 1-cyclobutyl-4-{[4-(2,6-dimethylbenzoyl)piperazin-1-yl]acetyl}piperazine], for which the inhibition at 4 µM was greater than 90%.

Turning to `CCOc1ccccc1C(=O)N1CCN(CC(=O)N2CCN(C3CCC3)CC2)CC1` [Compound 699, 1-cyclobutyl-4-{[4-(2-ethoxybenzoyl)piperazin-1-yl]acetyl}piperazine], the inhibition at 4 µM was greater than 90%.

As to `CCC(CC)(C(=O)N1CCN(CC(=O)N2CCN(C3CCC3)CC2)CC1)c1ccccc1` [Compound 702, 1-cyclobutyl-4-{[4-(2-ethyl-2-phenylbutanoyl)piperazin-1-yl]acetyl}piperazine], the inhibition at 4 µM was greater than 90%.

As for `Cc1cccc(C(=O)N2CCN(CC(=O)N3CCN(C4CCC4)CC3)CC2)c1F` [Compound 703, 1-cyclobutyl-4-{[4-(2-fluoro-3-methylbenzoyl)piperazin-1-yl]acetyl}piperazine], the inhibition at 4 µM was greater than 90%.

In the case of `O=C(CN1CCN(C(=O)c2ccccc2F)CC1)N1CCN(C2CCC2)CC1` [Compound 706, 1-cyclobutyl-4-{[4-(2-fluorobenzoyl)piperazin-1-yl]acetyl}piperazine], the inhibition at 4 µM is greater than 90%.

`COc1ccccc1C(=O)N1CCN(CC(=O)N2CCN(C3CCC3)CC2)CC1` [Compound 711, 1-cyclobutyl-4-{[4-(2-methoxybenzoyl)piperazin-1-yl]acetyl}piperazine]: the inhibition at 4 µM was greater than 90%.

Regarding `Cc1oc(-c2ccccc2)cc1C(=O)N1CCN(CC(=O)N2CCN(C3CCC3)CC2)CC1` [Compound 713, 1-cyclobutyl-4-{[4-(2-methyl-5-phenyl-3-furoyl)piperazin-1-yl]acetyl}piperazine], the inhibition at 4 µM was greater than 90%.

Turning to `Cc1ccccc1C(=O)N1CCN(CC(=O)N2CCN(C3CCC3)CC2)CC1` [Compound 714, 1-cyclobutyl-4-{[4-(2-methylbenzoyl)piperazin-1-yl]acetyl}piperazine], the inhibition at 4 µM is greater than 90%.

For `O=C(CN1CCN(C(=O)c2ccc3ccccc3c2)CC1)N1CCN(C2CCC2)CC1` [Compound 716, 1-cyclobutyl-4-{[4-(2-naphthoyl)piperazin-1-yl]acetyl}piperazine], the inhibition at 4 µM was greater than 90%.

As for `O=C(Cc1ccc2ccccc2c1)N1CCN(CC(=O)N2CCN(C3CCC3)CC2)CC1` [Compound 717, 1-cyclobutyl-4-{[4-(2-naphthylacetyl)piperazin-1-yl]acetyl}piperazine], the inhibition at 4 µM is greater than 90%.

Consider `O=C(CN1CCN(C(=O)c2ccccc2Oc2ccccc2)CC1)N1CCN(C2CCC2)CC1` [Compound 718, 1-cyclobutyl-4-{[4-(2-phenoxybenzoyl)piperazin-1-yl]acetyl}piperazine], for which the inhibition at 4 µM was greater than 90%.

On to `CCC(C(=O)N1CCN(CC(=O)N2CCN(C3CCC3)CC2)CC1)c1ccccc1` (stereo not drawn) [Compound 721, 1-cyclobutyl-4-{[4-(2-phenylbutanoyl)piperazin-1-yl]acetyl}piperazine], for which the inhibition at 4 µM is greater than 90%.

On to `CCCOc1ccccc1C(=O)N1CCN(CC(=O)N2CCN(C3CCC3)CC2)CC1` [Compound 722, 1-cyclobutyl-4-{[4-(2-propoxybenzoyl)piperazin-1-yl]acetyl}piperazine], for which the inhibition at 4 µM is greater than 90%.

Turning to `O=C(CN1CCN(C(=O)c2cccs2)CC1)N1CCN(C2CCC2)CC1` [Compound 723, 1-cyclobutyl-4-{[4-(2-thienylcarbonyl)piperazin-1-yl]acetyl}piperazine], the inhibition at 4 µM is greater than 90%.

For the compound `COc1cc(C(=O)N2CCN(CC(=O)N3CCN(C4CCC4)CC3)CC2)cc(OC)c1OC` [Compound 724, 1-cyclobutyl-4-{[4-(3,4,5-trimethoxybenzoyl)piperazin-1-yl]acetyl}piperazine], the inhibition at 4 µM is greater than 90%.

Consider `O=C(CN1CCN(C(=O)c2ccc(Cl)c(Cl)c2)CC1)N1CCN(C2CCC2)CC1` [Compound 726, 1-cyclobutyl-4-{[4-(3,4-dichlorobenzoyl)piperazin-1-yl]acetyl}piperazine], for which the inhibition at 4 µM is greater than 90%.

For the compound `CCOc1ccc(C(=O)N2CCN(CC(=O)N3CCN(C4CCC4)CC3)CC2)cc1OCC` [Compound 728, 1-cyclobutyl-4-{[4-(3,4-diethoxybenzoyl)piperazin-1-yl]acetyl}piperazine], the inhibition at 4 µM was greater than 90%.

With `O=C(CN1CCN(C(=O)c2ccc(F)c(F)c2)CC1)N1CCN(C2CCC2)CC1` [Compound 729, 1-cyclobutyl-4-{[4-(3,4-difluorobenzoyl)piperazin-1-yl]acetyl}piperazine], the inhibition at 4 µM was greater than 90%.

With `COc1ccc(C(=O)N2CCN(CC(=O)N3CCN(C4CCC4)CC3)CC2)cc1OC` [Compound 731, 1-cyclobutyl-4-{[4-(3,4-dimethoxybenzoyl)piperazin-1-yl]acetyl}piperazine], the inhibition at 4 µM was greater than 90%.

Regarding `Cc1ccc(C(=O)N2CCN(CC(=O)N3CCN(C4CCC4)CC3)CC2)cc1C` [Compound 734, 1-cyclobutyl-4-{[4-(3,4-dimethylbenzoyl)piperazin-1-yl]acetyl}piperazine], the inhibition at 4 µM is greater than 90%.

Regarding `COc1c(Cl)cc(Cl)c(OC)c1C(=O)N1CCN(CC(=O)N2CCN(C3CCC3)CC2)CC1` [Compound 737, 1-cyclobutyl-4-{[4-(3,5-dichloro-2,6-dimethoxybenzoyl)piperazin-1-yl]acetyl}piperazine], the inhibition at 4 µM is greater than 90%.

Consider `O=C(CN1CCN(C(=O)c2cc(Cl)cc(Cl)c2)CC1)N1CCN(C2CCC2)CC1` [Compound 738, 1-cyclobutyl-4-{[4-(3,5-dichlorobenzoyl)piperazin-1-yl]acetyl}piperazine], for which the inhibition at 4 µM is greater than 90%.

`COc1cc(OC)cc(C(=O)N2CCN(CC(=O)N3CCN(C4CCC4)CC3)CC2)c1` [Compound 741, 1-cyclobutyl-4-{[4-(3,5-dimethoxybenzoyl)piperazin-1-yl]acetyl}piperazine]: the inhibition at 4 µM was greater than 90%.

Consider `Cc1cc(C)cc(C(=O)N2CCN(CC(=O)N3CCN(C4CCC4)CC3)CC2)c1` [Compound 742, 1-cyclobutyl-4-{[4-(3,5-dimethylbenzoyl)piperazin-1-yl]acetyl}piperazine], for which the inhibition at 4 µM was greater than 90%.

For `COc1ccc(C(=O)N2CCN(CC(=O)N3CCN(C4CCC4)CC3)CC2)cc1F` [Compound 748, 1-cyclobutyl-4-{[4-(3-fluoro-4-methoxybenzoyl)piperazin-1-yl]acetyl}piperazine], the inhibition at 4 µM is greater than 90%.

On to `O=C(CN1CCN(C(=O)c2cccc(F)c2)CC1)N1CCN(C2CCC2)CC1` [Compound 752, 1-cyclobutyl-4-{[4-(3-fluorobenzoyl)piperazin-1-yl]acetyl}piperazine], for which the inhibition at 4 µM was greater than 90%.
